From the Kinase Knowledgebase extract (Sharma et al. 2016)

Molecular target: ROCK2 (human) (UniProt O75116)
Assay: Inhibition of ROCK2 Kinase Activity

Chain of ROCK2 (human) (O75116 whole entry, looked up): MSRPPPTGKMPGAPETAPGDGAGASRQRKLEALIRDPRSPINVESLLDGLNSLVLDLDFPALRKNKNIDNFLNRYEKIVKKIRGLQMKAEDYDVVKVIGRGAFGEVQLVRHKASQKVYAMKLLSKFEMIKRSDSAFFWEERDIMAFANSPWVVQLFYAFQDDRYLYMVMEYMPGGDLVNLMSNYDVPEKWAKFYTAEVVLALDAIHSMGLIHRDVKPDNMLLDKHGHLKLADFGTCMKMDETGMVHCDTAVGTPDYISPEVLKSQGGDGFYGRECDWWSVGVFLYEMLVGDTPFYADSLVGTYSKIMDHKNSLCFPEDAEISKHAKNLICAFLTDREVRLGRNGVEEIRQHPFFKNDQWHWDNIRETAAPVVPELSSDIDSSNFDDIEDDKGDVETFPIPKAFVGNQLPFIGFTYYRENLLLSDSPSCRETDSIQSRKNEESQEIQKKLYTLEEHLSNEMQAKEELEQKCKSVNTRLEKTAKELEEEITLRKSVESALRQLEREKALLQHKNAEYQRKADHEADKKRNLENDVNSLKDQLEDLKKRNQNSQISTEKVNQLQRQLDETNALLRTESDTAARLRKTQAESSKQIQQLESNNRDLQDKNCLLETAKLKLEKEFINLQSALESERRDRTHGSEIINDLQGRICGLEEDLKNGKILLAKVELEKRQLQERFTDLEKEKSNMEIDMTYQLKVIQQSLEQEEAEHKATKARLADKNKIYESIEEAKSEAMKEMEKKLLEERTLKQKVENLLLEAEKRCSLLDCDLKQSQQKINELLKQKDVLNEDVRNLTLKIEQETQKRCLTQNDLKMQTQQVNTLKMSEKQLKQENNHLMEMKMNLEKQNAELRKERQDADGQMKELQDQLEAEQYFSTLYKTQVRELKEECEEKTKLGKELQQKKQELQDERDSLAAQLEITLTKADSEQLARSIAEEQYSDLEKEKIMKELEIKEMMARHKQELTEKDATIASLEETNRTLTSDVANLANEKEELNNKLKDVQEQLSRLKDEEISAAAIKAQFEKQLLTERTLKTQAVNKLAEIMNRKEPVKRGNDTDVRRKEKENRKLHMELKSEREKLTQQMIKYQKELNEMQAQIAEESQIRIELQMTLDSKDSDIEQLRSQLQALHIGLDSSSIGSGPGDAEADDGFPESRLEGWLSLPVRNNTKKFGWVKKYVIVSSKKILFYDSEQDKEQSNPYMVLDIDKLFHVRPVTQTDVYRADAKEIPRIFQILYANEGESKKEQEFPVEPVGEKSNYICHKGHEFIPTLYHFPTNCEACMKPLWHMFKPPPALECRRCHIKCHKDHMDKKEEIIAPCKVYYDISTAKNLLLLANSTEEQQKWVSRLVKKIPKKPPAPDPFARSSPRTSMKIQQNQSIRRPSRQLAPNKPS

| IC50 | SMILES |
| --- | --- |
| > 5 µM | O=C(NCc1nc(-c2c[nH]c3ncccc23)n[nH]1)c1ccncc1Cl |
| > 5 µM | O=C(NCc1nc(-c2c[nH]c3ncccc23)n[nH]1)c1ccc(F)cc1 |
| > 5 µM | NC(=O)c1cc(-c2ccncc2)n[nH]1 |
| > 5 µM | O=C(C=Cc1ccc2c(c1)OCO2)NCc1nc(-c2c[nH]c3ncccc23)n[nH]1 |
| > 5 µM | Cc1nc(Br)sc1C(=O)NCc1nc(-c2c[nH]c3ncccc23)n[nH]1 |
| > 5 µM | CCN(CC)c1ccc(C(=O)NCc2nc(-c3c[nH]c4ncccc34)n[nH]2)cc1 |
| > 5 µM | O=C(C=Cc1ccc(Cl)cc1)NCc1nc(-c2ccncc2)n[nH]1 |
| > 5 µM | O=C(CCc1ccccc1O)NCc1nc(-c2ccncc2)n[nH]1 |
| > 5 µM | COc1ccc2cc(C(C)C(=O)NCc3nc(-c4ccncc4)n[nH]3)ccc2c1 (stereo not drawn) |
| > 5 µM | O=C(NCc1nc(-c2c[nH]c3ncccc23)n[nH]1)c1ccc2ncccc2c1 |
| > 5 µM | Cc1ccc(C(=O)NCc2nc(-c3c[nH]c4ncccc34)n[nH]2)c(C)c1 |
| > 5 µM | Cc1ccccc1C(=O)NCc1nc(-c2c[nH]c3ncccc23)n[nH]1 |
| > 5 µM | COC(=O)c1ccc(C(=O)NCc2nc(-c3c[nH]c4ncccc34)n[nH]2)cc1 |
| > 5 µM | CC1=NN(c2ccc(C(=O)NCc3nc(-c4c[nH]c5ncccc45)n[nH]3)cc2)C(=O)C1 |
| > 5 µM | O=C(Cc1ccccc1CO)NCc1nc(-c2c[nH]c3ncccc23)n[nH]1 |
| > 5 µM | O=C(C=Cc1ccccc1O)NCc1nc(-c2ccncc2)n[nH]1 |
| > 5 µM | O=C(NCc1nc(-c2ccncc2)n[nH]1)c1ccc(F)cc1Cl |
| > 5 µM | CC(C)(C)OC(=O)N1CCCCC1C(=O)NCc1nc(-c2c[nH]c3ncccc23)n[nH]1 (stereo not drawn) |
| > 5 µM | CC(C)CC(=O)NCc1nc(-c2c[nH]c3ncccc23)n[nH]1 |
| > 5 µM | O=CC(=O)NCc1nc(-c2c[nH]c3ncccc23)n[nH]1 |
| > 5 µM | O=C(NCc1nc(-c2ccncc2)n[nH]1)c1ccncc1 |
| > 5 µM | CS(=O)(=O)Nc1cccc(C(=O)NCc2nc(-c3ccncc3)n[nH]2)c1 |

| IC50 | SMILES |
| --- | --- |
| ≤ 5 µM | O=C(NCc1nc(-c2ccncc2)n[nH]1)c1n[nH]c2ccccc12 |
| > 5 µM | N#Cc1cccc(C(=O)NCc2nc(-c3ccncc3)n[nH]2)c1 |
| > 5 µM | CCN(CC)c1ccc(C(=O)NCc2nc(-c3ccncc3)n[nH]2)cc1 |
| > 5 µM | O=C(NCc1nc(-c2c[nH]c3ncccc23)n[nH]1)c1cccc(Br)n1 |
| > 5 µM | CC(C)(C)OC(=O)N1CCCCC1C(=O)NCc1nc(-c2ccncc2)n[nH]1 (stereo not drawn) |
| > 5 µM | CC(=O)Oc1cccc(C(=O)NCc2nc(-c3ccncc3)n[nH]2)c1 |
| > 5 µM | O=C(NCc1nc(-c2ccncc2)n[nH]1)C(Cl)(Cl)Cl |
| > 5 µM | O=C(NCc1nc(-c2c[nH]c3ncccc23)n[nH]1)c1ccc(Cl)c([N+](=O)[O-])c1 |
| ≤ 5 µM | CS(=O)(=O)Nc1cccc(C(=O)NCc2nc(-c3c[nH]c4ncccc34)n[nH]2)c1 |
| > 5 µM | O=C(NCc1nc(-c2ccncc2)n[nH]1)c1ccnc(Cl)c1 |
| > 5 µM | O=C(c1cccs1)N1CCCC1c1nc(-c2ccncc2)n[nH]1 (stereo not drawn) |
| > 5 µM | COc1cccc(C(=O)NCc2nc(-c3ccncc3)n[nH]2)c1OC |
| > 5 µM | NC1CCN(C(=O)Cc2nc(-c3ccncc3)n[nH]2)C1 (stereo not drawn) |
| > 5 µM | O=C(NCc1nc(-c2c[nH]c3ncccc23)n[nH]1)c1cc(Cl)ccn1 |
| > 5 µM | CS(=O)(=O)Nc1ccc(C(=O)NCc2nc(-c3ccncc3)n[nH]2)cc1 |
| > 5 µM | O=C(NCc1nc(-c2ccncc2)n[nH]1)c1cccc(O)c1 |
| > 5 µM | CC(C)(C)C(=O)Oc1ccc(C(=O)NCc2nc(-c3ccncc3)n[nH]2)c(O)c1 |
| > 5 µM | O=C(NCc1nc(-c2c[nH]c3ncccc23)n[nH]1)C(Cl)(Cl)Cl |
| > 5 µM | O=C(C=Cc1ccccc1C(F)(F)F)NCc1nc(-c2ccncc2)n[nH]1 |
| > 5 µM | CCCCCc1ccc(C(=O)NCc2nc(-c3c[nH]c4ncccc34)n[nH]2)cc1 |
| > 5 µM | O=C(Cc1ccc(O)c(Cl)c1)NCc1nc(-c2c[nH]c3ncccc23)n[nH]1 |
| > 5 µM | O=C(NCc1nc(-c2c[nH]c3ncccc23)n[nH]1)c1cc2ccccc2s1 |

| IC50 | SMILES |
| --- | --- |
| > 5 µM | CCCCOc1ccc(C(=O)NCc2nc(-c3ccncc3)n[nH]2)cc1 |
| > 5 µM | CC1=NN(c2ccc(C(=O)NCc3nc(-c4ccncc4)n[nH]3)cc2)C(=O)C1 |
| > 5 µM | Cc1cccc([N+](=O)[O-])c1C(=O)NCc1nc(-c2c[nH]c3ncccc23)n[nH]1 |
| > 5 µM | CC(C)(C)OC(=O)NC(Cc1ccccn1)C(=O)NCc1nc(-c2ccncc2)n[nH]1 (stereo not drawn) |
| > 5 µM | Cc1nc(Br)sc1C(=O)NCc1nc(-c2ccncc2)n[nH]1 |
| > 5 µM | O=C(NCc1nc(-c2c[nH]c3ncccc23)n[nH]1)c1ccc(Oc2cccc(O)c2)cc1 |
| ≤ 5 µM | CC(NC(=O)c1cccs1)c1nc(-c2ccncc2)n[nH]1 (stereo not drawn) |
| ≤ 5 µM | CS(=O)(=O)Nc1cccc(C(=O)NCc2nc(-c3c[nH]c4ncccc34)cs2)c1 |
| > 5 µM | O=C(NCc1nc(-c2ccncc2)n[nH]1)c1ccc2cccc(O)c2n1 |
| > 5 µM | O=C(NCc1nc(-c2c[nH]c3ncccc23)n[nH]1)c1cccc(F)c1 |
| > 5 µM | CC(CC(=O)NCc1nc(-c2ccncc2)n[nH]1)CC(C)(C)C (stereo not drawn) |
| > 5 µM | CC(=O)NCC(=O)NCc1nc(-c2ccncc2)n[nH]1 |
| > 5 µM | CC(NC(=O)OC(C)(C)C)C(=O)NCc1nc(-c2c[nH]c3ncccc23)n[nH]1 (stereo not drawn) |
| > 5 µM | O=C(NCc1nc(-c2c[nH]c3ncccc23)n[nH]1)c1c2ccccc2cc2ccccc12 |
| > 5 µM | Cc1cc(C)cc(C(=O)NCc2nc(-c3c[nH]c4ncccc34)n[nH]2)c1 |
| > 5 µM | COc1ccc([N+](=O)[O-])c(C(=O)NCc2nc(-c3c[nH]c4ncccc34)n[nH]2)c1 |
| > 5 µM | CC(C)(C)OC(=O)NC(Cc1ccc(O)cc1)C(=O)NCc1nc(-c2c[nH]c3ncccc23)n[nH]1 (stereo not drawn) |
| > 5 µM | O=C(NCc1nc(-c2ccncc2)n[nH]1)c1cnc(O)c(Cl)c1 |
| ≤ 5 µM | Cc1cccc(C(=O)NCc2cc(-c3ccncc3)n[nH]2)c1O |
| > 5 µM | O=C(NCc1nc(-c2c[nH]c3ncccc23)n[nH]1)c1cscn1 |
| > 5 µM | O=C(Cc1c(F)cccc1F)NCc1nc(-c2c[nH]c3ncccc23)n[nH]1 |
| > 5 µM | O=C(NCc1nc(-c2ccncc2)n[nH]1)c1cc2ccccc2o1 |

| IC50 | SMILES |
| --- | --- |
| > 5 µM | O=C(NCc1nc(-c2c[nH]c3ncccc23)n[nH]1)C1CCCCC1 |
| > 5 µM | CCCCCCCC(=O)NCc1nc(-c2ccncc2)n[nH]1 |
| > 5 µM | O=C(NCc1nc(-c2ccncc2)n[nH]1)c1cccc(F)c1F |
| ≤ 5 µM | Cc1c(O)ccc(C(=O)NCc2nc(-c3ccncc3)n[nH]2)c1O |
| > 5 µM | O=C(NCc1nc(-c2c[nH]c3ncccc23)n[nH]1)c1cccnc1Cl |
| ≤ 5 µM | O=C(NCc1nc(-c2ccncc2)n[nH]1)c1ccsc1 |
| > 5 µM | O=C(NCc1nc(-c2ccncc2)n[nH]1)c1ccc(Cl)cc1O |
| > 5 µM | O=C(NCc1nc(-c2c[nH]c3ncccc23)n[nH]1)c1cccc(I)c1 |
| > 5 µM | O=C(NCc1nc(-c2ccncc2)n[nH]1)c1cc(F)c(F)cc1Cl |
| > 5 µM | O=C(NCc1nc(-c2c[nH]c3ncccc23)n[nH]1)c1cc(F)c(Cl)cc1F |
| > 5 µM | CC(C(=O)NCc1nc(-c2ccncc2)n[nH]1)c1ccc(-c2ccccc2)c(F)c1 (stereo not drawn) |
| > 5 µM | CCC(=O)C(=O)NCc1nc(-c2ccncc2)n[nH]1 |
| > 5 µM | CC(C)Oc1ccc(C(=O)NCc2nc(-c3c[nH]c4ncccc34)n[nH]2)cc1 |
| ≤ 5 µM | O=C(NCc1nc(-c2ccncc2)n[nH]1)c1ccc(Oc2cccc(O)c2)cc1 |
| > 5 µM | O=C(NCc1nc(-c2ccncc2)n[nH]1)c1ccc(-c2ccc(O)cc2)cc1 |
| ≤ 5 µM | O=C(NCc1nc(-c2ccncc2)n[nH]1)c1cc(O)ccc1O |
| > 5 µM | Cc1ccc(C)c(C(=O)NCc2nc(-c3c[nH]c4ncccc34)n[nH]2)c1 |
| ≤ 5 µM | Cc1cccc(C(=O)NCc2nc(-c3ccncc3)c[nH]2)c1O |
| > 5 µM | COc1cc(OC)cc(C(=O)NCc2nc(-c3c[nH]c4ncccc34)n[nH]2)c1 |
| > 5 µM | O=C(NCc1nc(-c2ccncc2)n[nH]1)C1CCCN1C(=O)OCc1ccccc1 (stereo not drawn) |
| > 5 µM | CC(C)(C)OC(=O)NC(Cc1ccccc1)C(=O)NCc1nc(-c2c[nH]c3ncccc23)n[nH]1 (stereo not drawn) |
| > 5 µM | CC(=O)Nc1cccc(C(=O)NCc2nc(-c3ccncc3)n[nH]2)c1 |

| IC50 | SMILES |
| --- | --- |
| > 5 µM | Cc1ccc(C(=O)CCC(=O)NCc2nc(-c3ccncc3)n[nH]2)cc1 |
| > 5 µM | N#Cc1cccc(C(=O)NCc2nc(-c3c[nH]c4ncccc34)n[nH]2)c1 |
| > 5 µM | O=C(NCc1nc(-c2ccncc2)n[nH]1)c1cc(Cl)ccc1[N+](=O)[O-] |
| > 5 µM | O=C(NCc1nc(-c2ccncc2)n[nH]1)c1ccccc1Cc1ccccc1 |
| > 5 µM | O=C(NCc1nc(-c2ccncc2)n[nH]1)c1cccc(Br)c1 |
| > 5 µM | Oc1ccc(C(O)CCc2nc(-c3ccncc3)n[nH]2)cc1 (stereo not drawn) |
| > 5 µM | O=C(NCc1nc(-c2c[nH]c3ncccc23)n[nH]1)c1ccnc(Cl)c1 |
| > 5 µM | CC(C)(C)c1ccc(C(=O)NCc2nc(-c3ccncc3)n[nH]2)cc1 |
| > 5 µM | CC(=O)Oc1ccccc1C(=O)NCc1nc(-c2c[nH]c3ncccc23)n[nH]1 |
| > 5 µM | O=C(NCc1nc(-c2ccncc2)n[nH]1)c1cc(F)c(Cl)cc1F |
| > 5 µM | O=C(C=Cc1ccccc1O)NCc1nc(-c2c[nH]c3ncccc23)n[nH]1 |
| > 5 µM | Cc1cc(C(=O)NCc2nc(-c3c[nH]c4ncccc34)n[nH]2)n[nH]1 |
| > 5 µM | CC(=O)NC(Cc1ccc(O)cc1)C(=O)NCc1nc(-c2ccncc2)n[nH]1 (stereo not drawn) |
| > 5 µM | O=C(NCc1nc(-c2c[nH]c3ncccc23)n[nH]1)c1ccc(-c2ccc(O)cc2)cc1 |
| > 5 µM | COc1ccc([N+](=O)[O-])c(C(=O)NCc2nc(-c3ccncc3)n[nH]2)c1 |
| > 5 µM | COc1cccc(O)c1C(=O)NCc1nc(-c2c[nH]c3ncccc23)n[nH]1 |
| > 5 µM | O=C(NCc1nc(-c2ccncc2)n[nH]1)c1cccc(Cl)c1Cl |
| > 5 µM | O=C(NCc1nc(-c2c[nH]c3ncccc23)n[nH]1)c1cccc(Cl)c1[N+](=O)[O-] |
| > 5 µM | O=C(NCc1nc(-c2c[nH]c3ncccc23)n[nH]1)c1cc(Cl)c(O)c(Cl)c1 |
| > 5 µM | O=C(NCc1nc(-c2ccncc2)n[nH]1)c1c(F)c(F)c(F)c(F)c1F |
